“Also recorded” adds a separate entry of the source.
Columns and labels:
SARS-CoV-2 [1] = assay: qPCR of SARS-CoV-2 viral load in non-targeting or PIK3C3 CRISPR-perturbed A549-ACE2 cells treated with PIK3C3 inhibitors; format: cell-based; details: 10 μM, 2 hours pretreatment, MOI 0.1, 36 hpi
[2] = tested on: primary human CD8+ T-cells; assay: T cell activation, intracellular cytokine staining after CD3/CD28 stimulation; format: cell-based; details: 10 μM, 1 hour pre-incubation
SARS-CoV-2 [3] = assay: qRT-PCR of SARS-CoV-2 viral load in inhibitor-treated A549-ACE2 cells; format: cell-based, SARS-CoV-2 isolate USA-WA1/2020; details: 10 μM inhibitor, MOI 0.1, 36 hpi

Structure (SMILES): C[C@@H]1COCCN1c1cc(=O)n2c(n1)N(Cc1cncc(Cl)c1)[C@H](C(F)(F)F)CC2 [SAR405]
- specificity for PIK3C3: viral inhibition in PIK3C3 CRISPR-perturbed versus non-targeting cells (SARS-CoV-2 [1]): greater viral inhibition in PIK3C3 CRISPR-perturbed cells; also recorded: may have some off-target effects

Structure (SMILES): Cc1cc(Nc2cc(Cl)nc(Oc3ccc([N+](=O)[O-])cc3)n2)n[nH]1 [autophinib, Autophinib]
- specificity for PIK3C3: viral inhibition in PIK3C3 CRISPR-perturbed versus non-targeting cells (SARS-CoV-2 [1]): specific

Structure (SMILES): CC[C@H](Nc1ncnc2[nH]cnc12)c1nc2cccc(F)c2c(=O)n1-c1ccccc1 [idelalisib, Idelalisib]
- release of interferon-gamma (IFNγ) by CD8+ T-cells [2]: significant reduction
- release of tumor necrosis factor (TNF) by CD8+ T-cells [2]: significant reduction

Structure (SMILES): CC/C(=C(\c1ccccc1)c1ccc(OCCN(C)C)cc1)c1ccccc1 [tamoxifen, Tamoxifen]
- reduction in SARS-CoV-2 viral load (in words) (SARS-CoV-2 [3]): substantial reduction
- effect on T-cell activation and cytokine secretion [2]: no effect

Structure (SMILES): Nc1ncc(-c2ccnc(Nc3ccncc3)n2)c(CC2CC2)n1 [PIK-III]
- specificity for PIK3C3: viral inhibition in PIK3C3 CRISPR-perturbed versus non-targeting cells (SARS-CoV-2 [1]): specific
